Test results: the NIST ThermoML archive (doi:10.1021/je500093z)

Columns and labels:
[1] = for surface tension liquid-gas: Ring tensiometer; for viscosity / speed of sound / mass density: 101.33 kPa, Liquid; for speed of sound: Pulse-echo method; for mass density: Vibrating tube method
[2] = refractive index (Na D-line) (dimensionless); details: 101.33 kPa, Liquid, Standard Abbe refractometry

CCCCCCCC[n+]1ccn(C)c1.[Cl-] [1-methyl-3-octylimidazolium chloride]
Details	mass density, [1] [kg/m3]	refractive index, [2]	speed of sound, [1] [m/s]	surface tension liquid-gas, [1] [mN/m]	viscosity, [1] [mPa·s]
298.15 K	1010	1.5088	1687.2	32.5	13267
303.15 K	1007	1.5085	1667.7	32.2	7770.4
308.15 K	1004	1.5061	1646.1	31.9	4755.2
313.15 K	1001	1.5058	1619.6	31.6	3006.7
318.15 K	998	1.5054	1597.1	31.3	1967.6
323.15 K	995	1.5048	1577.4	31	1323.4
328.15 K	992	1.5037	1559.6	30.7	914.13
333.15 K	989	1.5029	1543	30.4	646.96
